Results on three compounds are retold here after patent US4318916A, “Antibiotic PS-5 and derivatives having β-lactamase inhibitory activity and production thereof” (Sanraku-Ocean Co., Ltd., priority 1977, dated 1982).

SMILES strings stand for the structures. ≈ marks a conversion by molar mass, not a printed value. Like-named read-outs stand apart in the source and are kept apart here. A value given as a limit tells only on which side of the number the result lay.

Broadly, the MIC is the lowest concentration found to suppress growth.

The test system of one data set is Escherichia coli K12. Briefly: MIC by broth dilution (Table 13). Particulars: 20 h. The class given is cell-based. The protocol: (§1) The MIC (minimum inhibitory concentration) values of the compound were determined on various pathogenic microorganisms including several resistant strains, utilizing the broth dilution method in BRAIN HEART INFUSION BROTH `Eiken` (EIKEN CHEMICAL CO., LTD.).
(§2) The results were read after incubation at 35° C. for 20 hours. The minimum inhibitory concentration (MIC) values means the lowest concentration unit of the tritylation product of the antibiotic PS-5 was no growth of the corresponding microorganism was observed under the above described conditions. As the control antibiotics,the solutions of ampicillin and cephaloridine were prepared in BRAIN HEART INFUSION BROTH `Eiken` (pH 7.0) at a concentration of 100 μg/ml and treated same as the test compound of the present invention.
On the technique in general: Dilution methods test growth across graded concentrations, often in twofold steps.

A further data set relates to Enterobacter sp. E-8. Briefly: MIC by broth dilution (Table 13). It is filed as cell-based. The following applies: SP.E8, 20 h. The protocol: as §1, §2
For data set [1], the system named is Staphylococcus aureus FDA 209p. Briefly: MIC by broth dilution (Table 13). The class given is cell-based. Particulars: FDA209P, 20 h. The protocol: as §1, §2
Data set [2] relates to Alcaligenes faecalis B-326. Put plainly: MIC by broth dilution (Table 13). The following applies: B326, 20 h. It is filed as cell-based. The protocol: as §1, §2
For data set [3], the system named is Diplococcus pneumoniae Type III. Briefly: MIC by broth dilution (Table 13). It is filed as cell-based. The following applies: Streptococcus pneumoniae, 20 h. The protocol:
as §1, §2

For data set [4], the system named is Pseudomonas aeruginosa P-1. Briefly: MIC by broth dilution (Table 13). The class given is cell-based. The following applies: P1, 20 h. The protocol: as §1, §2
Data set [5] has as its system Klebsiella pneumoniae K-2. Put plainly: MIC by broth dilution (Table 13). It is filed as cell-based. Particulars: K2, 20 h. The protocol:
as §1, §2

A further data set deals with Proteus mirabilis P-6. Put plainly: MIC by broth dilution (Table 13). The following applies: P6, 20 h. The class given is cell-based. The protocol: as §1, §2
The subject of the next data set is Sarcina lutea S-19. Put plainly: MIC by broth dilution (Table 13). It is filed as cell-based. Particulars: Micrococcus luteus, S19, 20 h. The protocol:
as §1, §2

Data set [6] deals with Streptococcus pyogenes NY-5. Put plainly: MIC by broth dilution (Table 13). It is filed as cell-based. The following applies: NY5, 20 h. The protocol: as §1, §2
The test system of a further data set is Proteus rettgeri P-7. Briefly: MIC by broth dilution (Table 13). The class given is cell-based. The following applies: Providencia rettgeri, P7, 20 h. The protocol: as §1, §2
The test system of data set [7] is Staphylococcus aureus Smith. Put plainly: MIC by broth dilution (Table 13). The following applies: 20 h. It is filed as cell-based. The protocol: as §1, §2
For data set [8], the system named is Citrobacter freundii E-9. Briefly: MIC by broth dilution (Table 13). Particulars: E9, 20 h. The class given is cell-based. The protocol: as §1, §2
Data set [9] concerns Proteus vulgaris P-5. Briefly: MIC by broth dilution (Table 13). It is filed as cell-based. The following applies: P5, 20 h. The protocol: as §1, §2
Data set [10] can be described thus: pH and heat stability of antibiotic PS-5 in aqueous solution. It is filed as physicochemical. The following applies: for remaining at 0.25 h: water, pH 9, at least 15 min of heating at 60° C., aqueous solution, around neutral to weakly alkaline pH below pH 9.
Data set [11] has as its system Staphylococcus aureus Smith. Put plainly: Therapeutic activity of antibiotic PS-5 sodium salt in infected mice. The class given is in vivo. The following applies: mice infected with pathogenic Gram-positive bacteria. From the text:
The therapeutic activity of the antibiotic PS-5 sodium salt was studied by treating mice intraperitoneally infected with 5×10^5 cells/mouse of Staphylococcus aureus Smith. Soon after the infection, an aqueous solution of the antibiotic PS-5 sodium salt was subcutaneously injected.

Data set [12] in a line: Solubility of antibiotic PS-5. The class given is physicochemical.
For data set [13], the system named is Staphylococcus aureus Smith. Briefly: In vivo activity of trityl ester in infected mice. The protocol:
The in vivo activity of the tritylation product of the antibiotic PS-5 was measured in mice intraperitoneally infected with 5×10^3 cells/mouse of Staphylococcus aureus Smith. The trityl ester of the antibiotic PS-5 was subcutaneously injected just after infection.

In another data set the test system is Proteus sp. P-22. Briefly: Potentiation disc assay of trityl ester (Table 14). It is filed as cell-based. The following applies: for Halo of inhibition Cephaloridine added: 50 μg/ml cephaloridine in base agar. The protocol:
(§3) (A) Assay Petri dishes (9 cm in diameter) containing resistant microorganisms were prepared by overlaying 10 ml of the molten nutrient agar seeded with beta-lactam-resistant (beta-lactamase-producing) microorganisms, on the solid base layer of nutrient agar (pH 7.0) (15 ml) containing 50 μg/ml of penicillin G or cephaloridine. As described before, the antibiotic solutions to be tested were applied in a 25 μl amount on an 8 mm pulp disc and placed on the said assay dishes. After incubation for 18 hours at 35° C., the inhibition halos were measured and compared with the results on the corresponding assay dished containing neither penicillin G nor cephaloridine. From the data in Table 14, it is very clear that the combination of the tritylation product of antibiotic PS-5 at a concentration below the lower limit of disc assay, with penicillin G or cephaloridine, at a concentration below said limit, produced a significant halo of inhibition. This fact clearly proves the potentiation of the antibiotic activity of penicillin G or cephaloridine with the tritylation product of antibiotic PS-5.

The subject of data set [14] is Citrobacter freundii E-9. Put plainly: Potentiation disc assay of trityl ester (Table 14). It is filed as cell-based. Particulars: for Halo of inhibition Cephaloridine added: 50 μg/ml cephaloridine in base agar. The protocol:
as §3

In data set [15] the test system is Proteus vulgaris P-5. Briefly: Potentiation disc assay of trityl ester (Table 14). The class given is cell-based. The following applies: for Halo of inhibition Cephaloridine added: 50 μg/ml cephaloridine in base agar. The protocol: as §3

For `O=C(Cc1cccs1)N[C@@H]1C(=O)N2C(C(=O)[O-])=C(C[n+]3ccccc3)CS[C@H]12` [Cephaloridine, cephaloridine], the minimal inhibitory concentration (MIC) in the data set on Escherichia coli K12 was 2.5 µg/mL (≈ 6.02 µM); with Enterobacter sp. E-8 (Enterobacter), greater than 100 µg/mL; in [1] (Staphylococcus aureus) it was 0.04 µg/mL (≈ 0.0963 µM); in data set [2] (Alcaligenes faecalis) it was 6.25 µg/mL (≈ 15 µM); in [3], 0.01 µg/mL (≈ 0.0241 µM); in data set [4] (Pseudomonas aeruginosa), greater than 20 µg/mL. The MIC stood at 10 µg/mL (≈ 24.1 µM) in data set [5] (Klebsiella pneumoniae); 10 µg/mL (≈ 24.1 µM) in the data set with Proteus mirabilis P-6 (Proteus mirabilis); 0.05 µg/mL (≈ 0.12 µM) against Sarcina lutea S-19; 0.01 µg/mL (≈ 0.0241 µM) in data set [6] (Streptococcus pyogenes); 50 µg/mL (≈ 120 µM) against Proteus rettgeri P-7; 0.04 µg/mL (≈ 0.0963 µM) in data set [7] (Staphylococcus aureus). In addition, the MIC against Citrobacter freundii E-9 [8] (Citrobacter freundii) was greater than 100 µg/mL; in the data set with Proteus vulgaris P-5 [9] (Proteus vulgaris), greater than 20 µg/mL.

Take `CCC1C(=O)N2C(C(=O)O)=C(SCCNC(C)=O)CC12` (single isomer, unassigned) [Antibiotic PS-5]: the remaining at 5 min in [10] (pH 3, pH 3.0 for 5 minutes at -17° C., read-out: Initial antibiotic activity still detected) is no less than 30%. In addition, the remaining at 0.25 h in [10] (read-out: Antibiotic activity remaining) was no less than 50%; in [10] (usual value, read-out: Antibiotic activity remaining, usually) it was greater than 70%. The “Therapeutic effect in infected mice” value in data set [11] was “marked therapeutic effect”. Moreover, the “Solubility in ethyl acetate and benzene” value in data set [12] (at pH above 4) is “substantially insoluble”. The Solubility in water result in data set [12] (water at pH 6 to 9) is reported as “soluble”.

Take `CCC1C(=O)N2C(C(=O)OC(c3ccccc3)(c3ccccc3)c3ccccc3)=C(SCCNC(C)=O)CC12` (single isomer, unassigned) [Trityl PS-5]: in [13] (male ddy mice, Staphylococcus aureus Smith, subcutaneous, in Comamonas-cephaloridine units), the 50% curative dose is 27,540 CCU/kg. In addition, in data set [13] (mice infected with a pathogenic Gram-positive bacteria), the “Therapeutic effect in infected mice” value is “marked therapeutic effect”. Moreover, the ED50 in data set [13] (sc, male ddy mice infected i.p. with 5×10^3 cells/mouse Staphylococcus aureus Smith, subcutaneously injected just after infection, read-out: 50% curative dose) is 2.55 mg/kg. Also, the zone of inhibition at 50 µg/mL was 0 mm in the data set on Proteus sp. P-22 (18 h, Trityl PS-5 50 μg/ml, read-out: Halo of inhibition Control); 13 mm in the data set on Citrobacter freundii E-9 [14] (E9, 18 h, Trityl PS-5 50 μg/ml, read-out: Halo of inhibition Control); 0 mm with Proteus vulgaris P-5 [15] (P5, 18 h, Trityl PS-5 50 μg/ml, cephaloridine series, read-out: Halo of inhibition Control). The zone of inhibition at 100 µg/mL came to 0 mm with Proteus sp. P-22 (18 h, Trityl PS-5 100 μg/ml, read-out: Halo of inhibition Control); 16 mm in the data set on Citrobacter freundii E-9 [14] (E9, 18 h, Trityl PS-5 100 μg/ml, read-out: Halo of inhibition Control); 11 mm in the data set with Proteus vulgaris P-5 [15] (P5, 18 h, Trityl PS-5 100 μg/ml, cephaloridine series, read-out: Halo of inhibition Control). For the same compound, the “Halo of inhibition Cephaloridine added” value with Proteus sp. P-22 (Trityl PS-5 50 μg/ml) worked out at 11.5 mm; with Proteus sp. P-22 (Trityl PS-5 100 μg/ml), 13.5 mm; in the data set on Citrobacter freundii E-9 [14] (Trityl PS-5 50 μg/ml), 15.5 mm; in the data set on Citrobacter freundii E-9 [14] (Trityl PS-5 100 μg/ml), 18.0 mm; in the data set on Proteus vulgaris P-5 [15] (Trityl PS-5 50 μg/ml), 15.0 mm; in the data set on Proteus vulgaris P-5 [15] (Trityl PS-5 100 μg/ml), 18.0 mm. Besides, the zone of inhibition at 42 µg/mL with Proteus vulgaris P-5 [15] (P5, 18 h, Trityl PS-5 42 μg/ml, penicillin G series, read-out: Halo of inhibition Control) was 0 mm. For the same compound, the “Halo of inhibition Penicillin G added” value in the data set on Proteus vulgaris P-5 [15] (Trityl PS-5 42 μg/ml, 50 μg/ml penicillin G in base agar) is 27.0 mm. Also, the MIC is 5.37 µg/mL (≈ 9.93 µM) against Escherichia coli K12; 10 µg/mL (≈ 18.5 µM) with Enterobacter sp. E-8 (Enterobacter sp. E-8, read-out: MIC); 0.17 µg/mL (≈ 0.314 µM) in [1] (Staphylococcus aureus FDA 209p, read-out: MIC); 1.25 µg/mL (≈ 2.31 µM) in data set [2] (Alcaligenes faecalis B-326, read-out: MIC); 0.08 µg/mL (≈ 0.148 µM) in data set [3] (Diplococcus pneumoniae Type III, read-out: MIC); greater than 43 µg/mL in data set [4] (Pseudomonas aeruginosa P-1, read-out: MIC). For the same compound, the MIC amounted to 10.7 µg/mL (≈ 19.8 µM) in [5] (Klebsiella pneumoniae K-2, read-out: MIC); 21.5 µg/mL (≈ 39.8 µM) with Proteus mirabilis P-6 (Proteus mirabilis P-6, read-out: MIC); 0.27 µg/mL (≈ 0.499 µM) with Sarcina lutea S-19 (Sarcina lutea S-19, read-out: MIC); 0.17 µg/mL (≈ 0.314 µM) in [6] (Streptococcus pyogenes NY-5, read-out: MIC); 10 µg/mL (≈ 18.5 µM) in the data set on Proteus rettgeri P-7 (Proteus rettgeri P-7, read-out: MIC); 0.27 µg/mL (≈ 0.499 µM) in data set [7] (Staphylococcus aureus Smith, read-out: MIC). In addition, the MIC in the data set on Citrobacter freundii E-9 [8] (Citrobacter freundii E-9, read-out: MIC) came to 5 µg/mL (≈ 9.25 µM); in the data set with Proteus vulgaris P-5 [9] (Proteus vulgaris P-5, read-out: MIC), 21.5 µg/mL (≈ 39.8 µM).
